Experimental data taken from ChEMBL document CHEMBL1201861, “Genomics of Drug Sensitity in Cancer screening data, Wellcome Trust Sanger Institute”.
Structures can show the parent of a compound that is named as a salt.

Tests used:
Test in all cases: cells
[1] = test system: CP50-MEL-B; assay type: functional, cell-based, Homo sapiens;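 note: growth inhibition of the human cell line, measured with a cell viability read-out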
Description: SANGER: Inhibition of human CP50-MEL-B cell growth in a cell viability assay.

[2] = test system: Calu-3; assay type: functional, cell-based, Homo sapiens;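 note: growth inhibition of human Calu-3 cells, determined with a cell viability assay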
Description: SANGER: Inhibition of human Calu-3 cell growth in a cell viability assay.

[3] = test system: DU-145; assay type: functional, cell-based, Homo sapiens
Description: SANGER: Inhibition of human DU-145 cell growth in a cell viability assay.

[4] = test system: H-EMC-SS; assay type: functional, cell-based, Homo sapiens; settings: Homo sapiens, H-EMC-SS
Description: SANGER: Inhibition of human H-EMC-SS cell growth in a cell viability assay.

[5] = test system: HSC-3; assay type: functional, cell-based, Homo sapiens
Description: SANGER: Inhibition of human HSC-3 cell growth in a cell viability assay.

[6] = test system: HT1197; assay type: functional, cell-based, Homo sapiens, HT-1197
Description: SANGER: Inhibition of human HT-1197 cell growth in a cell viability assay.

[7] = test system: HT-1376; assay type: functional, cell-based, Homo sapiens
Description: SANGER: Inhibition of human HT-1376 cell growth in a cell viability assay.

[8] = test system: HuCCT-1; assay type: functional, cell-based, Homo sapiens, HuCCT1;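 note: growth inhibition of HuCCT-1 cells, read out by a cell viability assay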
Description: SANGER: Inhibition of human HuCCT1 cell growth in a cell viability assay.

[9] = test system: KYSE-510; assay type: functional, cell-based, Homo sapiens;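 note: cell viability readout used to measure how strongly growth of the cell line is suppressed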
Description: SANGER: Inhibition of human KYSE-510 cell growth in a cell viability assay.

[10] = test system: LCLC-97TM1; assay type: functional, cell-based, Homo sapiens;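 note: cell viability assay measuring growth inhibition of human LCLC-97TM1 cells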
Description: SANGER: Inhibition of human LCLC-97TM1 cell growth in a cell viability assay.

[11] = test system: MDA-MB-361; assay type: functional, cell-based, Homo sapiens
[12] = test system: NCI-H1563; assay type: functional, cell-based, Homo sapiens;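 note: growth inhibition of human NCI-H1563 cells, read out with a cell viability assay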
Description: SANGER: Inhibition of human NCI-H1563 cell growth in a cell viability assay.

[13] = test system: NCI-H1755; assay type: functional, cell-based, Homo sapiens;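 note: cell viability readout used to measure growth inhibition of NCI-H1755 cells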
Description: SANGER: Inhibition of human NCI-H1755 cell growth in a cell viability assay.

[14] = test system: NCI-H727; assay type: functional, cell-based, Homo sapiens;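 note: growth inhibition of human NCI-H727 cells, read out with a cell viability assay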
Description: SANGER: Inhibition of human NCI-H727 cell growth in a cell viability assay.

[15] = test system: NCI-H810; assay type: functional, cell-based, Homo sapiens;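 note: IC50 reflects inhibition of cancer cell line growth, read out with a cell viability assay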
Description: SANGER: Inhibition of human NCI-H810 cell growth in a cell viability assay.

[16] = test system: OVCAR-5; assay type: functional, cell-based, Homo sapiens;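 note: growth inhibition of human OVCAR-5 cells, read out with a cell viability assay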
Description: SANGER: Inhibition of human OVCAR-5 cell growth in a cell viability assay.

[17] = test system: P12-Ichikawa; assay type: functional, cell-based, Homo sapiens
[18] = test system: PC-14; assay type: functional, cell-based, Homo sapiens;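 note: cell viability assay measuring inhibition of PC-14 cell growth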
Description: SANGER: Inhibition of human PC-14 cell growth in a cell viability assay.

[19] = test system: RCM-1; assay type: functional, cell-based, Homo sapiens;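 note: growth inhibition of the RCM-1 line, determined with a cell viability readout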
Description: SANGER: Inhibition of human RCM-1 cell growth in a cell viability assay.

[20] = test system: SCC-9; assay type: functional, cell-based, Homo sapiens;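 note: Read-out is a cell viability assay, with values giving inhibition of cell growth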
Description: SANGER: Inhibition of human SCC-9 cell growth in a cell viability assay.

[21] = test system: SF-295; assay type: functional, cell-based, Homo sapiens;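 note: growth inhibition of SF-295 cells, read out with a cell viability assay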
Description: SANGER: Inhibition of human SF295 cell growth in a cell viability assay.

[22] = test system: SK-HEP1; assay type: functional, cell-based, Homo sapiens, SK-HEP-1;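 note: cell viability readout used to quantify reduction in proliferation of human SK-HEP-1 cells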
Description: SANGER: Inhibition of human SK-HEP-1 cell growth in a cell viability assay.

[23] = test system: SK-MEL-24; assay type: functional, cell-based, Homo sapiens;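 note: growth inhibition read out by a cell viability assay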
Description: SANGER: Inhibition of human SK-MEL-24 cell growth in a cell viability assay.

[24] = test system: SW 1116; assay type: functional, cell-based, Homo sapiens; settings: Homo sapiens, SW 1116;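 note: growth inhibition of SW1116 cells, read out with a cell viability assay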
Description: SANGER: Inhibition of human SW1116 cell growth in a cell viability assay.

[25] = test system: A2058; assay type: functional, cell-based, Homo sapiens;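 note: reduction of A2058 cell growth, read out with a viability assay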
Description: SANGER: Inhibition of human A2058 cell growth in a cell viability assay.

[26] = test system: ACHN; assay type: functional, cell-based, Homo sapiens;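 note: cell viability read-out used to gauge how strongly growth of human ACHN cells is suppressed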
Description: SANGER: Inhibition of human ACHN cell growth in a cell viability assay.

[27] = test system: AN3-CA; assay type: functional, cell-based, Homo sapiens;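 note: growth inhibition of human AN3-CA cells measured by a cell viability assay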
Description: SANGER: Inhibition of human AN3-CA cell growth in a cell viability assay.

[28] = test system: ASPC1; assay type: functional, cell-based, Homo sapiens;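 note: growth inhibition of AsPC-1 cells, read out with a cell viability assay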
Description: SANGER: Inhibition of human AsPC-1 cell growth in a cell viability assay.

[29] = test system: BFTC-905; assay type: functional, cell-based, Homo sapiens
Description: SANGER: Inhibition of human BFTC-905 cell growth in a cell viability assay.

[30] = test system: BFTC-909; assay type: functional, cell-based, Homo sapiens
Description: SANGER: Inhibition of human BFTC-909 cell growth in a cell viability assay.

[31] = test system: C-33-A; assay type: functional, cell-based, Homo sapiens;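 note: cell viability assay measuring growth inhibition of C-33-A cells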
Description: SANGER: Inhibition of human C-33-A cell growth in a cell viability assay.

[32] = test system: CAL-27; assay type: functional, cell-based, Homo sapiens;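 note: Viability-based readout, IC50 reflecting inhibition of CAL-27 cell growth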
Description: SANGER: Inhibition of human CAL-27 cell growth in a cell viability assay.

[33] = test system: ZR-75-30; assay type: functional, cell-based, Homo sapiens; settings: Homo sapiens, ZR-75-30;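 note: growth inhibition of ZR-75-30 cells, measured with a cell viability readout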
Description: SANGER: Inhibition of human ZR-75-30 cell growth in a cell viability assay.

[34] = test system: EB2; assay type: functional, cell-based, Homo sapiens;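 note: growth inhibition of EB2 cells, read out with a cell viability assay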
Description: SANGER: Inhibition of human EB2 cell growth in a cell viability assay.

[35] = test system: HCC1569; assay type: functional, cell-based, Homo sapiens;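 note: growth inhibition of human HCC1569 cells, read out with a cell viability assay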
Description: SANGER: Inhibition of human HCC1569 cell growth in a cell viability assay.

[36] = test system: HOP-92; assay type: functional, cell-based, Homo sapiens;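 note: cell viability readout, with IC50 reflecting inhibition of HOP-92 cell growth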
Description: SANGER: Inhibition of human HOP-92 cell growth in a cell viability assay.

[37] = test system: HuP-T3; assay type: functional, cell-based, Homo sapiens;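 note: HuP-T3 cell growth inhibition, read out with a cell viability assay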
Description: SANGER: Inhibition of human HuP-T3 cell growth in a cell viability assay.

[38] = test system: JEG-3; assay type: functional, cell-based, Homo sapiens;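 note: growth inhibition of human JEG-3 cells, read out with a cell viability assay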
Description: SANGER: Inhibition of human JEG-3 cell growth in a cell viability assay.

[39] = test system: KYSE-150 cell line; assay type: functional, cell-based, Homo sapiens;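 note: growth inhibition of human KYSE-150 cells, read out with a cell viability assay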
Description: SANGER: Inhibition of human KYSE-150 cell growth in a cell viability assay.

[40] = test system: NCI-H2052; assay type: functional, cell-based, Homo sapiens;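 note: growth inhibition of NCI-H2052 cells, read out with a cell viability assay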
Description: SANGER: Inhibition of human NCI-H2052 cell growth in a cell viability assay.

[41] = test system: NCI-H2171; assay type: functional, cell-based, Homo sapiens;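 note: growth inhibition of human NCI-H2171 cells, read out by a cell viability assay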
Description: SANGER: Inhibition of human NCI-H2171 cell growth in a cell viability assay.

[42] = test system: Panc1005; assay type: functional, cell-based, Homo sapiens;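 note: growth inhibition of human PANC-10-05 cells, measured by a cell viability assay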
Description: SANGER: Inhibition of human PANC-10-05 cell growth in a cell viability assay.

[43] = test system: PF-382; assay type: functional, cell-based, Homo sapiens
Description: SANGER: Inhibition of human PF-382 cell growth in a cell viability assay.

[44] = test system: SK-MEL3; assay type: functional, cell-based, Homo sapiens, SK-MEL-3;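 note: growth inhibition of human SK-MEL-3 cells, read out with a cell viability assay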
Description: SANGER: Inhibition of human SK-MEL-3 cell growth in a cell viability assay.

[45] = test system: SN12C; assay type: functional, cell-based, Homo sapiens;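 note: growth inhibition of human SN12C cells, measured by a cell viability assay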
Description: SANGER: Inhibition of human SN12C cell growth in a cell viability assay.

[46] = test system: CAL-85-1; assay type: functional, cell-based, Homo sapiens;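 note: growth inhibition of human CAL-85-1 cells, read out with a cell viability assay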
Description: SANGER: Inhibition of human CAL-85-1 cell growth in a cell viability assay.

[47] = test system: TE-441-T; assay type: functional, cell-based, Homo sapiens
Description: SANGER: Inhibition of human TE-441-T cell growth in a cell viability assay.

What does the source list for CN(C)C(=N)NC(=N)N [METFORMIN]?
IC50 ([1]; Homo sapiens, CP50-MEL-B): > 20000 µM; IC50 ([2]; Homo sapiens, Calu-3): > 20000 µM; IC50 ([3]; Homo sapiens, DU-145): 838 µM; IC50 [4]: > 20000 µM; IC50 ([5]; Homo sapiens, HSC-3): > 20000 µM; IC50 ([6]; Homo sapiens, HT1197): > 20000 µM; IC50 ([7]; Homo sapiens, HT-1376): 10400 µM; IC50 ([8]; Homo sapiens, HuCCT-1): > 20000 µM; IC50 ([9]; Homo sapiens, KYSE-510): > 20000 µM; IC50 ([10]; Homo sapiens, LCLC-97TM1): 3170 µM; IC50 ([11]; Homo sapiens, MDA-MB-361): > 20000 µM; IC50 ([12]; Homo sapiens, NCI-H1563): 8610 µM; IC50 ([13]; Homo sapiens, NCI-H1755): > 20000 µM; IC50 ([14]; Homo sapiens, NCI-H727): > 20000 µM; IC50 ([15]; Homo sapiens, NCI-H810): > 20000 µM; IC50 ([16]; Homo sapiens, OVCAR-5): > 20000 µM; IC50 ([17]; Homo sapiens, P12-Ichikawa): 12400 µM; IC50 ([18]; Homo sapiens, PC-14): 17600 µM; IC50 ([19]; Homo sapiens, RCM-1): > 20000 µM; IC50 ([20]; Homo sapiens, SCC-9): 10200 µM; IC50 ([21]; Homo sapiens, SF-295): 6170 µM; IC50 ([22]; Homo sapiens, SK-HEP1): > 20000 µM; IC50 ([23]; Homo sapiens, SK-MEL-24): > 20000 µM; IC50 [24]: > 20000 µM; IC50 ([25]; Homo sapiens, A2058): > 20000 µM; IC50 ([26]; Homo sapiens, ACHN): > 20000 µM; IC50 ([27]; Homo sapiens, AN3-CA): > 20000 µM; IC50 ([28]; Homo sapiens, ASPC1): 5370 µM; IC50 ([29]; Homo sapiens, BFTC-905): 11700 µM; IC50 ([30]; Homo sapiens, BFTC-909): > 20000 µM; IC50 ([31]; Homo sapiens, C-33-A): 9400 µM; IC50 ([32]; Homo sapiens, CAL-27): > 20000 µM; IC50 [33]: 14900 µM

What does the source list for COC1=CC(c2cc3ccccc3[nH]2)=N/C1=C\c1[nH]c(C)cc1C [OBATOCLAX MESYLATE]?
IC50 ([1]; Homo sapiens, CP50-MEL-B): 0.0879 µM; IC50 ([2]; Homo sapiens, Calu-3): 0.253 µM; IC50 ([3]; Homo sapiens, DU-145): 0.467 µM; IC50 ([34]; Homo sapiens, EB2): < 0.0625 µM; IC50 ([35]; Homo sapiens, HCC1569): 0.018 µM; IC50 ([36]; Homo sapiens, HOP-92): 0.368 µM; IC50 ([5]; Homo sapiens, HSC-3): < 0.0625 µM; IC50 ([6]; Homo sapiens, HT1197): 0.395 µM; IC50 ([7]; Homo sapiens, HT-1376): 0.127 µM; IC50 ([8]; Homo sapiens, HuCCT-1): 0.0833 µM; IC50 ([37]; Homo sapiens, HuP-T3): 0.528 µM; IC50 ([38]; Homo sapiens, JEG-3): 1.5 µM; IC50 ([39]; Homo sapiens, KYSE-150): 0.0401 µM; IC50 ([9]; Homo sapiens, KYSE-510): < 0.0625 µM; IC50 ([10]; Homo sapiens, LCLC-97TM1): 0.0559 µM; IC50 ([11]; Homo sapiens, MDA-MB-361): 0.998 µM; IC50 ([12]; Homo sapiens, NCI-H1563): > 16 µM; IC50 ([13]; Homo sapiens, NCI-H1755): 5.23 µM; IC50 ([40]; Homo sapiens, NCI-H2052): 0.567 µM; IC50 ([41]; Homo sapiens, NCI-H2171): 0.85 µM; IC50 ([14]; Homo sapiens, NCI-H727): 0.0805 µM; IC50 ([15]; Homo sapiens, NCI-H810): 0.117 µM; IC50 ([16]; Homo sapiens, OVCAR-5): 0.311 µM; IC50 ([17]; Homo sapiens, P12-Ichikawa): 0.0735 µM; IC50 ([42]; Homo sapiens, Panc1005): 0.115 µM; IC50 ([18]; Homo sapiens, PC-14): 0.0525 µM; IC50 ([43]; Homo sapiens, PF-382): 0.0494 µM; IC50 ([19]; Homo sapiens, RCM-1): 0.572 µM; IC50 ([20]; Homo sapiens, SCC-9): 1.24 µM; IC50 ([21]; Homo sapiens, SF-295): 0.34 µM; IC50 ([22]; Homo sapiens, SK-HEP1): 0.196 µM; IC50 ([23]; Homo sapiens, SK-MEL-24): 0.913 µM; IC50 ([44]; Homo sapiens, SK-MEL3): < 0.0625 µM; IC50 ([45]; Homo sapiens, SN12C): 0.886 µM; IC50 ([25]; Homo sapiens, A2058): 0.107 µM; IC50 ([26]; Homo sapiens, ACHN): 0.132 µM; IC50 ([27]; Homo sapiens, AN3-CA): 0.156 µM; IC50 ([28]; Homo sapiens, ASPC1): 7.49 µM; IC50 ([29]; Homo sapiens, BFTC-905): 0.0791 µM; IC50 ([30]; Homo sapiens, BFTC-909): 0.453 µM; IC50 ([31]; Homo sapiens, C-33-A): < 0.0625 µM; IC50 ([32]; Homo sapiens, CAL-27): 0.0646 µM; IC50 ([46]; Homo sapiens, CAL-85-1): 0.0183 µM; IC50 ([47]; Homo sapiens, TE-441-T): 1.43 µM

For BLEOMYCIN, which IC50 ([1]; cp50-mel-b) is on record?
The IC50 was 3950 µM.

What about the IC50 ([2]; calu-3) of the same compound?
The IC50 was 6.19 µM.

What about the IC50 ([3]; du-145) of the same compound?
The IC50 was 0.823 µM.

What about the IC50 ([34]; eb2) of the same compound?
Its IC50 is 0.691 µM.

What about the IC50 ([35]; hcc1569) of the same compound?
The IC50 was 0.604 µM.

And the IC50 ([36]; hop-92)?
The IC50 was 9.26 µM.

What about the IC50 ([5]; hsc-3) of the same compound?
The IC50 was 0.688 µM.

And the IC50 ([6]; ht-1197)?
The IC50 was 2.74 µM.

And the IC50 ([7]; ht-1376)?
Its IC50 is 9.74 µM.

What about the IC50 ([8]; hucct1) of the same compound?
The IC50 was 10.9 µM.

What about the IC50 ([37]; hup-t3) of the same compound?
The IC50 was 4.79 µM.

What about the IC50 ([38]; jeg-3) of the same compound?
The IC50 was 8.55 µM.

And the IC50 ([39]; kyse-150)?
Its IC50 is 0.00265 µM.

And the IC50 ([9]; kyse-510)?
Its IC50 is 1.86 µM.

And the IC50 ([10]; lclc-97tm1)?
Its IC50 is 1.5 µM.

And the IC50 ([11]; mda-mb-361)?
Its IC50 is 0.719 µM.

And the IC50 ([12]; nci-h1563)?
Its IC50 is 20.6 µM.

What about the IC50 ([13]; nci-h1755) of the same compound?
Its IC50 is 26 µM.

And the IC50 ([40]; nci-h2052)?
Its IC50 is 2.97 µM.

What about the IC50 ([41]; nci-h2171) of the same compound?
Its IC50 is 1420 µM.

What about the IC50 ([14]; nci-h727) of the same compound?
The IC50 was 10.3 µM.

And the IC50 ([15]; nci-h810)?
The IC50 was 55.1 µM.

What about the IC50 ([16]; ovcar-5) of the same compound?
Its IC50 is 4.75 µM.

And the IC50 ([17]; p12-ichikawa)?
Its IC50 is 5.55 µM.

And the IC50 ([42]; panc1005)?
The IC50 was 0.256 µM.

And the IC50 ([18]; pc-14)?
Its IC50 is 0.183 µM.

And the IC50 ([43]; pf-382)?
The IC50 was 0.426 µM.

And the IC50 ([19]; rcm-1)?
Its IC50 is 1.26 µM.

And the IC50 ([20]; scc-9)?
Its IC50 is 403 µM.

And the IC50 ([21]; sf-295)?
The IC50 was 0.0214 µM.

What about the IC50 ([22]; sk-hep-1) of the same compound?
The IC50 was 0.415 µM.

What about the IC50 ([23]; sk-mel-24) of the same compound?
Its IC50 is 23.3 µM.

What about the IC50 ([44]; sk-mel-3) of the same compound?
The IC50 was 22.2 µM.

What about the IC50 ([45]; sn12c) of the same compound?
The IC50 was 315 µM.

And the IC50 ([25]; a2058)?
The IC50 was 0.808 µM.

What about the IC50 ([26]; achn) of the same compound?
The IC50 was 0.375 µM.

And the IC50 ([27]; an3-ca)?
Its IC50 is 2.55 µM.

What about the IC50 ([28]; aspc1) of the same compound?
Its IC50 is 82.5 µM.

And the IC50 ([29]; bftc-905)?
Its IC50 is 2.32 µM.

And the IC50 ([30]; bftc-909)?
Its IC50 is 0.0138 µM.

And the IC50 ([31]; c-33-a)?
Its IC50 is 0.432 µM.

And the IC50 ([32]; cal-27)?
Its IC50 is 8.07 µM.

What about the IC50 ([46]; cal-85-1) of the same compound?
The IC50 was 0.000178 µM.

And the IC50 ([47]; te-441-t)?
The IC50 was 24.6 µM.
